Results: ChEMBL document CHEMBL3885881, “DrugMatrix”

Species on record: Rattus norvegicus
Assay: DrugMatrix - Regimen: Daily Repeat
Assay type: toxicity, organism-based, Sprague-Dawley
Set-up: regimen Daily Repeat, gender Male, age 6-8 weeks
Settings: in vivo, po, route oral GAVAGE, vehicle 100 % WATER; for ABSOLUTE BASOPHIL / ABSOLUTE EOSINOPHIL / ABSOLUTE LYMPHOCYTE / ABSOLUTE MONOCYTE / ABSOLUTE SEGMENTED NEUTROPHIL / BASOPHIL / EOSINOPHIL / ERYTHROCYTE COUNT / HEMATOCRIT / HEMOGLOBIN / LEUKOCYTE COUNT / LYMPHOCYTE / MEAN CORPUSCULAR HEMOGLOBIN / MEAN CORPUSCULAR HEMOGLOBIN CONCENTRATION / MEAN CORPUSCULAR VOLUME / MONOCYTE / NEUTROPHIL / NUCLEATED RED BLOOD CELLS / PLATELET COUNT: tissue Blood; for ALANINE AMINOTRANSFERASE / ALBUMIN / ALKALINE PHOSPHATASE / ASPARTATE AMINOTRANSFERASE / BLOOD UREA NITROGEN / CARBON DIOXIDE / CHLORIDE / CHOLESTEROL / CREATINE PHOSPHOKINASE / CREATININE / GLUCOSE / LACTATE DEHYDROGENASE / LIPASE / PHOSPHORUS / POTASSIUM / SODIUM / TOTAL BILIRUBIN / TOTAL PROTEIN / URIC ACID: tissue Plasma
[1] = 0 mg/kg, 72 h, dose level Control, time 3 day
[2] = 0 mg/kg, 120 h, dose level Control, time 5 day
[3] = 0.3 mg/kg, 72 h, dose level Low, time 3 day

Clc1cccc(Cl)c1N=C1NCCN1 [CLONIDINE]
ABSOLUTE BASOPHIL [1]: 0 CELLS/uL
ABSOLUTE EOSINOPHIL [1]: 24 CELLS/uL
ABSOLUTE LYMPHOCYTE [1]: 13105 CELLS/uL
ABSOLUTE MONOCYTE [1]: 76 CELLS/uL
ABSOLUTE SEGMENTED NEUTROPHIL [1]: 2145 CELLS/uL
BASOPHIL [1]: 0%
EOSINOPHIL [1]: 0.17%
ERYTHROCYTE COUNT [1]: 5.81 x10E6/uL
HEMATOCRIT [1]: 35.6%
HEMOGLOBIN [1]: 13.72 G/DL
LEUKOCYTE COUNT [1]: 15.35 x10E3/uL
LYMPHOCYTE [1]: 85.5%
MEAN CORPUSCULAR HEMOGLOBIN [1]: 23.62 pg
MEAN CORPUSCULAR HEMOGLOBIN CONCENTRATION [1]: 38.55 G/DL
MEAN CORPUSCULAR VOLUME [1]: 61.23 fL
MONOCYTE [1]: 0.5%
NEUTROPHIL [1]: 13.83%
NUCLEATED RED BLOOD CELLS [1]: 0 /100WBC
PLATELET COUNT [1]: 1189.83 x10E3/uL
ALANINE AMINOTRANSFERASE [1]: 48.67 u/L
ALBUMIN [1]: 4.27 G/DL
ALKALINE PHOSPHATASE [1]: 335 u/L
ASPARTATE AMINOTRANSFERASE [1]: 86.5 u/L
BLOOD UREA NITROGEN [1]: 14.33 mg/dL
CARBON DIOXIDE [1]: 29.17 mmol/L
CHLORIDE [1]: 99.83 MEQ/L
CHOLESTEROL [1]: 71.83 mg/dL
CREATINE PHOSPHOKINASE [1]: 506.83 u/L
CREATININE [1]: 0.18 mg/dL
GLUCOSE [1]: 162.17 mg/dL
LACTATE DEHYDROGENASE [1]: 264.5 u/L
LIPASE [1]: 9.67 u/L
PHOSPHORUS [1]: 11.92 mg/dL
POTASSIUM [1]: 6.55 MEQ/L
SODIUM [1]: 141.53 MEQ/L
TOTAL BILIRUBIN [1]: 0.18 mg/dL
TOTAL PROTEIN [1]: 5.87 G/DL
URIC ACID [1]: 1.67 mg/dL
ABSOLUTE BASOPHIL [2]: 0 CELLS/uL
ABSOLUTE EOSINOPHIL [2]: 25.33 CELLS/uL
ABSOLUTE LYMPHOCYTE [2]: 15680 CELLS/uL
ABSOLUTE MONOCYTE [2]: 92.33 CELLS/uL
ABSOLUTE SEGMENTED NEUTROPHIL [2]: 2102.33 CELLS/uL
BASOPHIL [2]: 0%
EOSINOPHIL [2]: 0.17%
ERYTHROCYTE COUNT [2]: 6 x10E6/uL
HEMATOCRIT [2]: 35.55%
HEMOGLOBIN [2]: 14.12 G/DL
LEUKOCYTE COUNT [2]: 17.9 x10E3/uL
LYMPHOCYTE [2]: 87.33%
MEAN CORPUSCULAR HEMOGLOBIN [2]: 23.65 pg
MEAN CORPUSCULAR HEMOGLOBIN CONCENTRATION [2]: 39.77 G/DL
MEAN CORPUSCULAR VOLUME [2]: 59.52 fL
MONOCYTE [2]: 0.5%
NEUTROPHIL [2]: 12%
NUCLEATED RED BLOOD CELLS [2]: 0.17 /100WBC
PLATELET COUNT [2]: 1325.67 x10E3/uL
ALANINE AMINOTRANSFERASE [2]: 56.17 u/L
ALBUMIN [2]: 4.23 G/DL
ALKALINE PHOSPHATASE [2]: 371.5 u/L
ASPARTATE AMINOTRANSFERASE [2]: 91 u/L
BLOOD UREA NITROGEN [2]: 15.33 mg/dL
CARBON DIOXIDE [2]: 27.67 mmol/L
CHLORIDE [2]: 99.5 MEQ/L
CHOLESTEROL [2]: 66.5 mg/dL
CREATINE PHOSPHOKINASE [2]: 518.5 u/L
CREATININE [2]: 0.18 mg/dL
GLUCOSE [2]: 143.33 mg/dL
LACTATE DEHYDROGENASE [2]: 238.83 u/L
LIPASE [2]: 9.33 u/L
PHOSPHORUS [2]: 10.68 mg/dL
POTASSIUM [2]: 6.5 MEQ/L
SODIUM [2]: 141.88 MEQ/L
TOTAL BILIRUBIN [2]: 0.18 mg/dL
TOTAL PROTEIN [2]: 6 G/DL
URIC ACID [2]: 1.63 mg/dL
ABSOLUTE BASOPHIL [3]: 0 CELLS/uL
ABSOLUTE EOSINOPHIL [3]: 0 CELLS/uL
ABSOLUTE LYMPHOCYTE [3]: 15419.33 CELLS/uL
ABSOLUTE MONOCYTE [3]: 122.67 CELLS/uL
ABSOLUTE SEGMENTED NEUTROPHIL [3]: 2191.33 CELLS/uL
BASOPHIL [3]: 0%
EOSINOPHIL [3]: 0%
ERYTHROCYTE COUNT [3]: 5.84 x10E6/uL
HEMATOCRIT [3]: 35.27%
HEMOGLOBIN [3]: 13.6 G/DL
LEUKOCYTE COUNT [3]: 17.73 x10E3/uL
LYMPHOCYTE [3]: 87%
MEAN CORPUSCULAR HEMOGLOBIN [3]: 23.23 pg
MEAN CORPUSCULAR HEMOGLOBIN CONCENTRATION [3]: 38.57 G/DL
MEAN CORPUSCULAR VOLUME [3]: 60.37 fL
MONOCYTE [3]: 0.67%
NEUTROPHIL [3]: 12.33%
NUCLEATED RED BLOOD CELLS [3]: 0 /100WBC
PLATELET COUNT [3]: 1290.67 x10E3/uL
ALANINE AMINOTRANSFERASE [3]: 45.33 u/L
ALBUMIN [3]: 3.9 G/DL
ALKALINE PHOSPHATASE [3]: 319 u/L
ASPARTATE AMINOTRANSFERASE [3]: 93.67 u/L
BLOOD UREA NITROGEN [3]: 18.33 mg/dL
CARBON DIOXIDE [3]: 27.33 mmol/L
CHLORIDE [3]: 101.67 MEQ/L
CHOLESTEROL [3]: 75 mg/dL
CREATINE PHOSPHOKINASE [3]: 321.67 u/L
CREATININE [3]: 0.19 mg/dL
GLUCOSE [3]: 140.33 mg/dL
LACTATE DEHYDROGENASE [3]: 166 u/L
LIPASE [3]: 9.67 u/L
PHOSPHORUS [3]: 10.43 mg/dL
POTASSIUM [3]: 6.56 MEQ/L
SODIUM [3]: 141.9 MEQ/L
TOTAL BILIRUBIN [3]: 0.17 mg/dL
TOTAL PROTEIN [3]: 5.63 G/DL
URIC ACID [3]: 1.87 mg/dL
